Molecular target: T1, vesicular nucleotide transporter (VNUT) (Homo sapiens, UniProt Q9BYT1)
T1 sequence (Q9BYT1 1-436): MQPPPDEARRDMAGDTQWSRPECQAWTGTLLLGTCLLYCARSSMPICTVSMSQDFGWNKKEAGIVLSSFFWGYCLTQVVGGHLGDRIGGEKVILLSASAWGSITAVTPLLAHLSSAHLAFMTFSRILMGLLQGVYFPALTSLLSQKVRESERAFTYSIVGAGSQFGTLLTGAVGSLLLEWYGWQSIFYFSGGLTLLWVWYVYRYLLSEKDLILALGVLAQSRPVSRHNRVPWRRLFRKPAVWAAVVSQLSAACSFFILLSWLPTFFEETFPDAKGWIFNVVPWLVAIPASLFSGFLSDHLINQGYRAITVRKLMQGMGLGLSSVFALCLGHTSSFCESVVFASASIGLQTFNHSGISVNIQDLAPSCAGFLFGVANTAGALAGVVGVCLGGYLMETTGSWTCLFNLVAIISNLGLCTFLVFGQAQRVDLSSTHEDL
Assay: [3H]-ATP uptake in proteoliposomes with purified human VNUT
Type: biochemical

- IC50: 67 nM
Structure (SMILES): CC/C=C\C/C=C\C/C=C\C/C=C\C/C=C\CCCC(=O)O [EPA, eicosapentaenoic acid]

Reference: publication PMC9335333 (Proceedings of the National Academy of Sciences of the …, 2022)
